These results are taken from ChEMBL document CHEMBL3102848, “Carbamazepine derivatives with P2X4 receptor-blocking activity” (Bioorg Med Chem, 2014).

pIC50: −log10 of the molar value. Bounds are passed on as bounds.

The target in one assay is T1, P2X purinoceptor 4 (Rattus norvegicus, UniProt P51577).
T1 sequence (P51577 whole entry): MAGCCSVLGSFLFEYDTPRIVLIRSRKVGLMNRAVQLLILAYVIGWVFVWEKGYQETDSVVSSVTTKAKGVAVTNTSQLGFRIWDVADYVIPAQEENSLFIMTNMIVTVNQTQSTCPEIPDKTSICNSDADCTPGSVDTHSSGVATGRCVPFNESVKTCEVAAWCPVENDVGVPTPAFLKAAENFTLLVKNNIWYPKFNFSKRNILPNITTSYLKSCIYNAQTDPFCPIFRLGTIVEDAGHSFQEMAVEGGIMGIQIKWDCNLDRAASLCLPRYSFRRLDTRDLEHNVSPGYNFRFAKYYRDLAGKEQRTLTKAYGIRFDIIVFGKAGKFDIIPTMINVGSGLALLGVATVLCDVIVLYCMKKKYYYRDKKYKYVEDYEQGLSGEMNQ
As to the kind of experiment: Antagonist activity at rat P2X4 receptor assessed as inhibition of ATP-induced calcium influx preincubated for 30 mins followed by ATP addition by Fluo-4 AM dye-based fluorescence assay.

The target in a further assay is T2, P2X purinoceptor 1 (Homo sapiens, UniProt P51575).
T2 sequence (P51575 whole entry): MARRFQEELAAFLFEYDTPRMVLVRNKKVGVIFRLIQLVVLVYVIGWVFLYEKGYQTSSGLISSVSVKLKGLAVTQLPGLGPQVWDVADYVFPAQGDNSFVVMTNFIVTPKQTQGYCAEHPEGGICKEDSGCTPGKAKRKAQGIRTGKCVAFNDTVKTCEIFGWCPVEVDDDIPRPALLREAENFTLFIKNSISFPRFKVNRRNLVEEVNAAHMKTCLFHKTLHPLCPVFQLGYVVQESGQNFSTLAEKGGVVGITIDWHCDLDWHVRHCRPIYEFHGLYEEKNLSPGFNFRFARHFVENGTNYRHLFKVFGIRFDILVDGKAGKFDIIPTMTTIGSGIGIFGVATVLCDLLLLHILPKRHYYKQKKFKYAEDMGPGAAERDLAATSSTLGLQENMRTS
Description: Antagonist activity at human P2X1 receptor expressed in human 1321N1 cells assessed as inhibition of ATP-induced cytosolic calcium influx preincubated for 30 mins followed by ATP addition by Fluo-4 AM dye-based fluorescence assay. The format is cell-based.

The next assay addresses T3, P2X purinoceptor 7 (Homo sapiens, UniProt Q99572).
T3 sequence (Q99572 whole entry): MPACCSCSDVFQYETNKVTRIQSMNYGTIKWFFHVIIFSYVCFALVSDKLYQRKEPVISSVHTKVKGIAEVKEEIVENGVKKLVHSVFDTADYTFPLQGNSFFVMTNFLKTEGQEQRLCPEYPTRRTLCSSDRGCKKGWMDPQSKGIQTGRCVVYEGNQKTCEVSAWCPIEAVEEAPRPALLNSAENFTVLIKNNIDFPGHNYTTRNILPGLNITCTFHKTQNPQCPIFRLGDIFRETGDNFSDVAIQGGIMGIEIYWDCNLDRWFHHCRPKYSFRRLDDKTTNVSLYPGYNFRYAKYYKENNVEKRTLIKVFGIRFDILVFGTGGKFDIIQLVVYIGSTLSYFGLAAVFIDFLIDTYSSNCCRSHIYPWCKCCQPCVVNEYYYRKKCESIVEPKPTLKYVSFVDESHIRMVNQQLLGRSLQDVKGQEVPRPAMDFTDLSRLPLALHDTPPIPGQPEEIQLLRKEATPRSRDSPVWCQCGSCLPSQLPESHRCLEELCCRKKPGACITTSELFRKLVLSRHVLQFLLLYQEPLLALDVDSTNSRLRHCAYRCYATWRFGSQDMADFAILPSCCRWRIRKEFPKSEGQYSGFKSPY
As to the kind of experiment: Antagonist activity at human P2X7 receptor expressed in human 1321N1 cells assessed as inhibition of ATP-induced cytosolic calcium influx preincubated for 30 mins followed by ATP addition by Fluo-4 AM dye-based fluorescence assay. The format is cell-based.

In the next assay the target is T4, P2X purinoceptor 3 (Homo sapiens, UniProt P56373).
T4 sequence (P56373 whole entry): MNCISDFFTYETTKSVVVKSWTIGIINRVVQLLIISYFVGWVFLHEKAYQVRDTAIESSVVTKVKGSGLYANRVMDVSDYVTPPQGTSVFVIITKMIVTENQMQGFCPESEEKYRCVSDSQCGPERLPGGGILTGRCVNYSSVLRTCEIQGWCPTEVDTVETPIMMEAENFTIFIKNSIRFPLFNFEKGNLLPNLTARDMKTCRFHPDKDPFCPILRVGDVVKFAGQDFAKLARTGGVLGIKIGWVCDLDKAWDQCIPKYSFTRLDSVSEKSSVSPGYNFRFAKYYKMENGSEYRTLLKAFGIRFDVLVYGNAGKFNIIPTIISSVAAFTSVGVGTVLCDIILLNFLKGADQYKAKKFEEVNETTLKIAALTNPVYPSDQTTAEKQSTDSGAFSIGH
As to the kind of experiment: Antagonist activity at human P2X3 receptor expressed in human 1321N1 cells assessed as inhibition of ATP-induced cytosolic calcium influx preincubated for 30 mins followed by ATP addition by Fluo-4 AM dye-based fluorescence assay. It counts as cell-based.

In assay [1] the target is T5, P2X purinoceptor 2 (Homo sapiens) (UniProt Q9UBL9).
T5 sequence (whole entry): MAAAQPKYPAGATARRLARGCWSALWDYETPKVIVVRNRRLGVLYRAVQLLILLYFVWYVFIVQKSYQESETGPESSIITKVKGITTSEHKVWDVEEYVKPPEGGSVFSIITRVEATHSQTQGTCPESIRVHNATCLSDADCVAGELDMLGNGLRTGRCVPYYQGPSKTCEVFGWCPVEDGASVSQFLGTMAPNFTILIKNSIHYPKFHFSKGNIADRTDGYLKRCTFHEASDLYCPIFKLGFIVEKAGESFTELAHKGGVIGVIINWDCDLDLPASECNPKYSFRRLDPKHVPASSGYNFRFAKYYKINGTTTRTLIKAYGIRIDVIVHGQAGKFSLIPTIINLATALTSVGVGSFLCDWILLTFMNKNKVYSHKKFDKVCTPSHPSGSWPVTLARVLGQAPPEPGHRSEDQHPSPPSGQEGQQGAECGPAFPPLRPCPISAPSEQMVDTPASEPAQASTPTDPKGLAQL
As to the kind of experiment: Antagonist activity at human P2X2 receptor expressed in human 1321N1 cells assessed as inhibition of ATP-induced cytosolic calcium influx at 100 uM preincubated for 30 mins followed by ATP addition by Fluo-4 AM dye-based fluorescence assay. It counts as cell-based.

On to `CCCN(CCC)C(=O)N1c2ccccc2C=Cc2ccccc21`, for which the pIC50 (as a rule, the negative decadic logarithm of the IC50, by convention in mol/L) at P2X purinoceptor 4 is 4.44; on P2X purinoceptor 1 it was 5.34; at P2X purinoceptor 7, < 4.00; at P2X purinoceptor 3, 4.82. The inhibition (as a rule, the drop in the measured response relative to a control, in per cent) in assay [1] was -2%.
Consider `CC(C)N(C(=O)N1c2ccccc2C=Cc2ccccc21)C(C)C`, for which the pIC50 is 4.26 at P2X purinoceptor 4, 5.27 on P2X purinoceptor 1, 4.02 at P2X purinoceptor 7 and 5.14 at P2X purinoceptor 3. In assay [1], the inhibition is 8%.
With `O=C(N1CCCC1)N1c2ccccc2C=Cc2ccccc21`, the pIC50 on P2X purinoceptor 4 is 4.16; on P2X purinoceptor 1, 4.16; at P2X purinoceptor 7 it was < 4.00; on P2X purinoceptor 3, 4.53. The inhibition in assay [1] was determined as 6%.
Take `CCN(CC)C(=O)N1c2ccccc2C=Cc2ccccc21`: the pIC50 was 4.37 at P2X purinoceptor 4, 4.60 at P2X purinoceptor 1, 4.16 at P2X purinoceptor 7 and 4.85 at P2X purinoceptor 3. Also, in assay [1], the inhibition stood at 1%.
As for `O=C(N1CCCCC1)N1c2ccccc2C=Cc2ccccc21`, the pIC50 on P2X purinoceptor 4 is 4.02; on P2X purinoceptor 1, 4.68; on P2X purinoceptor 7, < 4.00; on P2X purinoceptor 3, 5.10. For the same compound, the inhibition in assay [1] came out at 4%.
Take `O=C(NC1CCCCC1)N1c2ccccc2C=Cc2ccccc21`: the pIC50 at P2X purinoceptor 4 was 3.96; on P2X purinoceptor 1 it was 4.16; at P2X purinoceptor 7 it was 4.39; on P2X purinoceptor 3, 4.55. The inhibition in assay [1] worked out at 11%.
